Test results: ChEMBL document CHEMBL1143119, “Novel methylene-linked heterocyclic EP1 receptor antagonists” (Bioorg Med Chem Lett, 2008)

Key:
[1] = target: T1, Prostaglandin E2 receptor EP1 subtype (Homo sapiens, UniProt P34995); assay: Displacement of [3H]PGE2 from EP1 receptor
T1 sequence (P34995 whole entry): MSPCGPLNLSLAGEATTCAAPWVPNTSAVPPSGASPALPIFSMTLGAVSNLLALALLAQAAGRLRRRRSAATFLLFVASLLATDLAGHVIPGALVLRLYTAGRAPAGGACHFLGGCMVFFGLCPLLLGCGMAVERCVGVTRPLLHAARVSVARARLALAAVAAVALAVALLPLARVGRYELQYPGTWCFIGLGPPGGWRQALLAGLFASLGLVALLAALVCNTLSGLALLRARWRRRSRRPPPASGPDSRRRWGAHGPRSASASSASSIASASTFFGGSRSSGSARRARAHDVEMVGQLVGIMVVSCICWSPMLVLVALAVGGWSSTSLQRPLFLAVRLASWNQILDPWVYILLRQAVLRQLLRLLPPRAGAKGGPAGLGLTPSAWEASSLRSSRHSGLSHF

[2] = Distribution coefficient, log D at pH 7.8; assay type: physicochemical; conditions: octanol/water
[3] = target: T1, Prostaglandin E2 receptor EP1 subtype; assay: Antagonist activity at EP1 receptor by FLIPR assay; assay type: functional

Row | Structure (SMILES) | IC50 [1] [µM] | logD [2] | Ki [3] [µM]
1 | O=C(O)c1ccn(Cc2cc(Cl)ccc2OCc2ccccc2)n1 | 0.0794 | 0.7 | 
2 | O=C(O)Cc1csc(-c2cc(Cl)ccc2OCc2ccccc2)n1 | 0.0501 |  | 
3 | O=C(O)c1cccc(Nc2ccccc2OCc2ccccc2)n1 | > 1 |  | 
4 | Cc1cc(C(=O)O)cn1Cc1cc(Cl)ccc1OCc1ccccc1 | 0.158 | 3 | 
5 | O=C(O)c1coc(Cc2cc(Cl)ccc2OCc2ccccc2)n1 | 0.02 | 0.5 | 0.00158
6 | O=C(O)c1csc(Nc2cc(Cl)ccc2OCc2ccccc2)n1 | 0.0251 |  | 
7 | Cc1ccc(-c2cc(Cl)ccc2OCC(C)C)n1-c1cccc(C(=O)O)c1 |  | 3.1 | 
8 | O=C(O)Cc1csc(Cc2cc(Cl)ccc2OCc2ccccc2)n1 | > 1 |  | 
9 | O=C(O)c1c[nH]c(Cc2cc(Cl)ccc2OCc2ccccc2)n1 | > 1 | 0.6 | 
10 | CC(C)COc1ccc(Cl)cc1Cc1ccc(C(=O)O)o1 | 0.00316 |  | 0.000316
11 | O=C(O)c1cncc(Cc2cc(Cl)ccc2OCc2ccccc2)c1 | 0.631 | 1.4 | 
12 | O=C(O)c1cccc(Oc2cc(Cl)ccc2OCc2ccccc2)n1 | 0.794 |  | 
13 | O=C(O)c1ccc(Cc2cc(Cl)ccc2OCc2ccccc2)s1 | 0.0501 | 2.3 | 0.0158
14 | CC(C)COc1ccc(Cl)cc1Cc1cccc(C(=O)O)n1 | 0.0398 |  | 0.158
15 | Cc1cc(CC(=O)O)nn1-c1cc(Cl)ccc1OCc1ccccc1 | > 1 |  | 
16 | Cc1ccc(-c2cc(Cl)ccc2OCc2ccccc2)n1-c1cccc(C(=O)O)c1 |  | 2.5 | 
17 | Cc1cc(C(=O)O)oc1Cc1cc(Cl)ccc1OCc1ccccc1 | 0.01 | 1.8 | 0.002

Row | Structure (SMILES) | IC50 [1] [µM] | logD [2] | Ki [3] [µM]
18 | O=C(O)c1cccc(Cc2cc(Cl)ccc2OCc2ccccc2)c1 | 0.316 | 3 | 
19 | O=C(O)c1ccc(Cc2cc(Cl)ccc2OCc2ccccc2)o1 | 0.00631 | 1.5 | 0.002
20 | O=C(O)c1cnc(Cc2cc(Cl)ccc2OCc2ccccc2)s1 | 0.631 | 0.9 | 
21 | Cc1cc(C(=O)O)nn1Cc1cc(Cl)ccc1OCc1ccccc1 | 0.01 | 1 | 
22 | O=C(O)c1nc(Cc2cc(Cl)ccc2OCc2ccccc2)cs1 | 0.0251 | 1.1 | 
23 | Cc1cc(C(=O)O)nn1Cc1cc(Br)ccc1OCc1ccccc1 | 0.00631 | 1.2 | 
24 | Cn1cc(C(=O)O)nc1Cc1cc(Cl)ccc1OCc1ccccc1 | 0.316 | 0.7 | 
25 | O=C(O)c1cccc(Cc2cc(Cl)ccc2OCc2ccccc2)n1 | 0.158 | 2.2 | 
26 | O=C(O)c1ccnc(Cc2cc(Cl)ccc2OCc2ccccc2)c1 | > 1 | 1.1 | 
27 | O=C(O)c1csc(Cc2cc(Cl)ccc2OCc2ccccc2)n1 | 0.00631 | 1.2 | 
28 | O=C(O)c1cccc(C2=C(c3cc(Cl)ccc3OCc3ccccc3)CCC2)c1 |  | 3 | 
29 | Cc1cc(C(=O)O)nn1Cc1cc(Cl)ccc1OCC(C)C | 0.01 |  | 0.000794
30 | O=C(O)c1csc(-c2cc(Cl)ccc2OCc2ccccc2)n1 | 0.631 |  | 
31 | CC(C)COc1ccc(Cl)cc1Cc1nc(C(=O)O)cs1 | 0.00794 |  | 
32 | O=C(O)c1csc(Cc2cc(Cl)ccc2OCc2ccccc2)c1 | 0.0398 | 2.8 | 
33 | Cn1c(C(=O)O)cnc1Cc1cc(Cl)ccc1OCc1ccccc1 | > 1 | 0.7 | 
